Experimental data published in patent US20060009618A1, “Expression receptors with 7 transmembrane domains in baculovirus-insect cell system” (priority 2002, published 2006).

Assays:
non-infected Sf9 cells = test: Calcium imaging (fura-2) in non-infected Sf9 cells; format: cell-based, Spodoptera frugiperda; conditions: ionophore at 5 μM, FIG. 2 top graph
Experimental: In a first series of experiments, the possibility of measuring the calcium response in Sf9 cells using the calcium imaging technique was tested.
The protocol used for the assays is as follows:
(§1) Sf9 cells are cultured on 24-well plates containing 12 mm coverslips. Before the experiments, the culture medium is removed and washed with a buffer containing 10 mM of NaCl, 60 mM of KCl, 25 mM of MgCl2, 1.8 mM of CaCl2, 4 mM of D-glucose, 110 mM of sucrose and 10 mM of 2-(N-morpholino)ethanesulfonic acid; the pH is adjusted to 6.2 at ambient temperature with Trizma base.
The cells are incubated for 1 hour at ambient temperature in the dark with a solution of MBS containing fura 2-AM (4 μm) (molecular probe). […]
(§2) The fura-2 fluorescence measurements are carried out using a T.I.L.L Photonics GmbH, (Planegg) Polychrome II multipath wavelength illumination system for extinction. […] The acquisition and the calculation of the fluorescence images are carried out using the T.I.L.L-Vision program. […] The fluorescence ratios (f340/f380) are calculated for the intracellular Ca^2+ variations. […]
The Ca^2+ signals are the result of the mean determined on all the cells in the field of the camera (gray signal) and of the mean for the responding cells (black signal) (n=4).

[1] = system: octopamine receptor naturally present in Sf9 cells; test: Octopamine control, calcium imaging (fura-2) in Sf9 cells; format: cell-based, Spodoptera frugiperda; conditions: 50 μM
Experimental: as §1
The cells are incubated for 1 hour at ambient temperature in the dark with a solution of MBS containing fura 2-AM (4 μm) (molecular probe). The cells are then washed with an excess of MBS without fura 2-AM and mounted in a Coverwell chamber (Polylabo, France) (diameter: 9 mm; thickness: 2.5 mm; cross section: 22.5).
The chamber is placed under the microscope and the cells are perfused under gravity with 0.85 ml/min (3.78 cm/min) at ambient temperature (23° C.).
as §2, with “extinction. The microscope (Olympus) is equipped with a long-distance objective (×20). The spatio-temporal Ca^2+ distributions are studied using a PCO interline camera.” for “extinction.”

[2] = biological target: T1, HA-Gα16 (Gα16 protein with N-terminal HA epitope), expressed in Sf9 cells (human, UniProt P30679 1-374); test: colocalization by immunofluorescence, confocal microscopy, Sf9 cells infected with double-recombinant baculovirus
T1 construct: whole, on cells; Intracellular protein with a submembrane cytoplasmic location in infected Sf9 cells; also called Ga16; G16
T1 sequence (looked up): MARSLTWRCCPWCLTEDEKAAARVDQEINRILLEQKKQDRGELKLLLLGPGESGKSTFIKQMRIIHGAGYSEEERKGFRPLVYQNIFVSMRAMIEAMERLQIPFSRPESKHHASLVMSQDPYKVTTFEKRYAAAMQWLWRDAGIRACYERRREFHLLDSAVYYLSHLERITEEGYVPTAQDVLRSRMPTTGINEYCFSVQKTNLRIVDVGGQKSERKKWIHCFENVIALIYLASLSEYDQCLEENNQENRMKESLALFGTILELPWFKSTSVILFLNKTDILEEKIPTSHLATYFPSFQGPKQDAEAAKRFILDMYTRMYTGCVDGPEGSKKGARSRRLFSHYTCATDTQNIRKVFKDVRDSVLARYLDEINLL
Experimental: The cellular location of the ORs and of the G proteins were studied by immunofluorescence 36 hours after infection. The ORs are detected by means of an anti-FLAG primary antibody and an FITC-labeled secondary antibody. The G proteins are detected by means of a rhodamine-labeled anti-HA antibody.
The labeled cells are observed by confocal microscopy. In the cells infected with the AcMNPV209 and AcMNPV210 baculoviruses, labeling is observed to be located at the cell surface, with a punctate distribution typical of membrane receptors. In the cells infected with the AcSLP10G₁₆ and AcSLP10Golf baculoviruses, labeling is observed to have a submembrane cytoplasmic location. In the cells infected with the double-recombinant baculoviruses AcG₁₆-209, AcGolf-210, AcG₁₆-209 and AcGolf-210, colocalization of the receptor with each G protein co-expressed is observed. No major difference is observed between OR17-209 and OR17-210 as regards preferential binding with Golf or G₁₆. It therefore appears that these two receptors are capable of coupling to the two G proteins in insect cells.

CNc1c(Br)cc2oc(C[C@H]3O[C@@]4(CC[C@H]3C)O[C@H]([C@H](C)C(=O)c3ccc[nH]3)[C@H](C)C[C@H]4C)nc2c1C(=O)O [4-bromo A23187, 4-bromo-A23187]
intracellular Ca2+ variation (fluorescence ratio f340/f380) (non-infected Sf9 cells): induces a large increase in intracellular calcium

NCC(O)c1ccc(O)cc1 (stereo not shown) [octopamine]
intracellular calcium ([1]; all baculovirus-infected Sf9 cells (OR17-209 or OR17-210 alone, with G16 or with Golf), 36 hours after infection, FIG. 3): induces an increase in intracellular calcium
intracellular Ca2+ variation (fluorescence ratio f340/f380) ([1]; non-infected Sf9 cells, FIG. 2 bottom graph, B): induces an increase in intracellular calcium

B1: human olfactory receptor OR17-209 with N-terminal FLAG epitope, expressed in Sf9 cells from baculovirus AcMNPV209 (receptor, UniProt P47890 1-313, looked up, not shown: small tags and cut ends)
chain: MEGKNLTSISECFLLGFSEQLEEQKPLFGSFLFMYLVTVAGNLLIILVIITDTQLHTPMYFFLANLSLADACFVSTTVPKMLANIQIQSQAISYSGCLLQLYFFMLFVMLEAFLLAVMAYDCYVAICHPLHYILIMSPGLCIFLVSASWIMNALHSLLHTLLMNSLSFCANHEIPHFFCDINPLLSLSCTDPFTNELVIFITGGLTGLICVLCLIISYTNVFSTILKIPSAQGKRKAFSTCSSHLSVVSLFFGTSFCVDFSSPSTHSAQKDTVASVMYTVVTPMLNPFIYSLRNQEIKSSLRKLIWVRKIHSP
notes: whole, on cells; The construct encodes EGT signal peptide, FLAG and receptor; also called OR-209
binding result [2]: binds
